Tests used:
[1] = molecular target: T1, MGL (Rattus norvegicus, UniProt Q8R431); assay: 2-AG accumulation assay in rat brain homogenate; format: biochemical; details: rat brain homogenate, 2-AG accumulation as percent of vehicle; for 2-AG accumulation, % of vehicle control at 1 µM: compound 1 μM, read-out: Rat Brain 2AG % VehCntrl (%) @ 1 μM; for 2-AG accumulation, % of vehicle control at 10 µM: compound 10 μM, read-out: Rat Brain 2AG % VehCntrl (%) @ 10 μM
T1 construct: one g rat brain was homogenized using a Polytron homogenizer; from tissue; host or cells: rat brain homogenate
T1 sequence (Q8R431 1-303): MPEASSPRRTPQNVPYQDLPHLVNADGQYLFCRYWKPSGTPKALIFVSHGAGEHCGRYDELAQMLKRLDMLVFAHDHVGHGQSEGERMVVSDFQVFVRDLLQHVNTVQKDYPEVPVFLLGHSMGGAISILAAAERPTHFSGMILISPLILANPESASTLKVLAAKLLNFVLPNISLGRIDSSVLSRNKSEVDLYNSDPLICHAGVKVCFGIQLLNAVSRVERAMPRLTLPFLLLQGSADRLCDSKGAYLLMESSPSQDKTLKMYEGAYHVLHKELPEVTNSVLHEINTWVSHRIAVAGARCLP

[2] = molecular target: T2, purified wild type MGL (wt-MGLL 6H-11-313) (Homo sapiens, UniProt Q99685)
T2 sequence (Q99685 1-303): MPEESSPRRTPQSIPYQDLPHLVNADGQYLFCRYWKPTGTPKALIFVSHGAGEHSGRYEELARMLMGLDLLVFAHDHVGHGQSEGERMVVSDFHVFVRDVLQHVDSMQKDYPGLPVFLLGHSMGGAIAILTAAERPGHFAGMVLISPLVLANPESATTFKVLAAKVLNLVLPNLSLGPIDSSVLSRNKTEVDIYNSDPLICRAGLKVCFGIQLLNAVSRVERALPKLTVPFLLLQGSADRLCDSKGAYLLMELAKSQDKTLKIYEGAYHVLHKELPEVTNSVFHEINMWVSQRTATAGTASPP

SMILES | 2-AG accumulation, % of vehicle control at 1 µM [1] [%] | IC50 [2] [nM] | 2-AG accumulation, % of vehicle control at 10 µM [1] [%]
O=C(c1ccccc1)N1CCN(C2CN(C(=O)c3ccc(-c4ccccc4C(F)(F)F)cc3)C2)CC1 [Cpd 72, 1-(Phenylcarbonyl)-4-(1-{[2′-(trifluoromethyl)biphenyl-4-yl]carbonyl}azetidin-3-yl)piperazine] | – | 326 | 334
O=C(c1ccc(Cc2cccc(C(F)(F)F)c2)cc1)N1CC(N2CCN(C(=O)c3cscn3)CC2)C1 [Cpd 998] | 639 | < 5 | –
O=C(c1ccccc1)N1CCN(C2CN(C(=O)c3ccc(OCc4cccc(Cl)c4Cl)cc3)C2)CC1 [Cpd 381, 1-[1-({4-[(2,3-Dichlorobenzyl)oxy]phenyl}carbonyl)azetidin-3-yl]-4-(phenylcarbonyl)piperazine] | – | < 5 | 520
CS(=O)(=O)Nc1cccc(-c2ccc(C(=O)N3CC(N4CCN(C(=O)c5nccs5)CC4)C3)cc2)c1 [Cpd 219, N-[4′-({3-[4-(1,3-Thiazol-2-ylcarbonyl)piperazin-1-yl]azetidin-1-yl}carbonyl)biphenyl-3-yl]methanesulfonamide] | – | 32 | 851
O=C(c1ccc(Cc2ccc(C(F)(F)F)cc2)cc1)N1CC(N2CCN(C(=O)c3cscn3)CC2)C1 [Cpd 999] | 458 | 8 | –
O=C(c1ccc(-c2ccc(F)c(Cl)c2)cc1)N1CC(N2CCN(C(=O)c3cscn3)CC2)C1 [Cpd 227, 1-{1-[(3′-Chloro-4′-fluorobiphenyl-4-yl)carbonyl]azetidin-3-yl}-4-(1,3-thiazol-4-ylcarbonyl)piperazine] | – | 7 | 938
O=C(c1ccccc1)N1CCN(C2CN(C(=O)c3ccc(-c4ccccc4OC(F)(F)F)cc3)C2)CC1 [Cpd 196, 1-(Phenylcarbonyl)-4-(1-{[2′-(trifluoromethoxy)biphenyl-4-yl]carbonyl}azetidin-3-yl)piperazine] | – | 216 | 516
O=C(c1ccccc1)N1CCN(C2CN(C(=O)c3ccc(Oc4cc(C(F)(F)F)ccn4)cc3)C2)CC1 [Cpd 518] | 86 | 1610 | –
O=C(c1ccc(-c2ccc(Cl)c(Cl)c2)cc1)N1CC(N2CCN(C(=O)c3cscn3)CC2)C1 [Cpd 228, 1-{1-[(3′,4′-Dichlorobiphenyl-4-yl)carbonyl]azetidin-3-yl}-4-(1,3-thiazol-4-ylcarbonyl)piperazine] | – | < 5 | 710
O=C(c1ccc2c(ccn2-c2ccc(F)cc2F)c1)N1CC(N2CCN(C(=O)c3ccc[nH]3)CC2)C1 [Cpd 1061, 1-(2,4-Difluorophenyl)-5-({3-[4-(1H-pyrrol-2-ylcarbonyl)piperazin-1-yl]azetidin-1-yl}carbonyl)-1H-indole] | 618 | 6 | –
Cc1nc(-c2ccccc2)sc1C(=O)N1CC(N2CCN(C(=O)c3nccs3)CC2)C1 [Cpd 133, 1-{1-[(4-Methyl-2-phenyl-1,3-thiazol-5-yl)-carbonyl]azetidin-3-3yl}-4-(1,3-thiazol-2-ylcarbonyl)piperazine] | – | 67.3 | 623
O=C(c1ccc(-c2ccc(C(F)(F)F)s2)cc1)N1CCN(C2CN(C(=O)c3cscn3)C2)CC1 [Cpd 1136] | 325 | 25 | –
Cn1cc(-c2ccccc2)c2ccc(C(=O)N3CC(N4CCN(C(=O)c5cscn5)CC4)C3)cc21 [Cpd 1155] | 617 | 41 | –
Cn1cc(-c2ccc(C(F)(F)F)cc2)c2ccc(C(=O)N3CC(N4CCN(C(=O)c5cscn5)CC4)C3)cc21 [Cpd 1148] | 344 | 33 | –
O=C(c1cc(-c2ccccc2)n(-c2ccccc2)n1)N1CC(N2CCN(C(=O)c3nccs3)CC2)C1 [Cpd 1164] | 250 | 48 | –
O=C(c1ccc(N2CCCCCC2)cc1)N1CC(N2CCN(C(=O)c3nccs3)CC2)C1 [Cpd 888] | 940 | < 5 | –
O=C(c1ccc2c(-c3ccccc3)ncnc2c1)N1CC(N2CCN(C(=O)c3nccs3)CC2)C1 [Cpd 1130] | 553 | 22 | –

The next lines start with the values.

2-AG accumulation, % of vehicle control at 1 µM [1] [%] | IC50 [2] [nM] | 2-AG accumulation, % of vehicle control at 10 µM [1] [%] | SMILES
581 | 210 | – | O=C(c1ccc2c(c1)CCCN2C(=O)C1CCC1)N1CC(N2CCN(C(=O)c3nccs3)CC2)C1 [Cpd 364]
480 | 92 | 324 | CS(=O)(=O)c1cccc(-c2ccc(C(=O)N3CC(N4CCN(C(=O)c5nccs5)CC4)C3)cc2)c1 [Cpd 208, 1-(1-{[3′-(Methylsulfonyl)biphenyl-4-yl]carbonyl}azetidin-3-yl)-4-(1,3-thiazol-2-ylcarbonyl)piperazine]
363 | < 5 | – | O=C(c1ccc(S(=O)(=O)c2cccc(Cl)c2)cc1)N1CC(N2CCN(C(=O)c3nccs3)CC2)C1 [Cpd 876]
823 | < 5 | – | O=C(c1ccc2c(c1)Sc1ccccc1O2)N1CC(N2CCN(C(=O)c3nccs3)CC2)C1 [Cpd 886]
– | < 5 | 831 | O=C(c1ccc(-c2ccc(Cl)c(C(F)(F)F)c2)cc1)N1CC(N2CCN(C(=O)c3nccs3)CC2)C1 [Cpd 212, 1-(1-{[4′-Chloro-3′-(trifluoromethyl)biphenyl-4-yl]carbonyl}azetidin-3-yl)-4-(1,3-thiazol-2-ylcarbonyl)piperazine]
136 | 45 | – | O=C(c1ccc(Oc2cccc(C(F)(F)F)c2)nc1)N1CC(N2CCN(C(=O)c3cscn3)CC2)C1 [Cpd 689]
751 | 24 | – | O=C(c1cccc(C(F)(F)F)c1)N1CCc2cc(C(=O)N3CC(N4CCN(C(=O)c5nccs5)CC4)C3)ccc2C1 [Cpd 679, 6-({3-[4-(1,3-Thiazol-2-ylcarbonyl)piperazin-1-yl]azetidin-1-yl}carbonyl)-2-{[3-(trifluoromethyl)phenyl]carbonyl}-1,2,3,4-tetrahydroisoquinoline]
741 | < 5 | – | Cn1cc(-c2ccc(C(F)(F)F)cc2)c2ccc(C(=O)N3CC(N4CCN(C(=O)c5nccs5)CC4)C3)cc21 [Cpd 1347]
– | < 5 | 744 | O=C(c1cccc(-c2ccccc2C(F)(F)F)c1)N1CC(N2CCN(C(=O)c3nccs3)CC2)C1 [Cpd 148, 1-(1,3-Thiazol-2-ylcarbonyl)-4-(1-{[2′-(trifluoromethyl)biphenyl-3-yl]carbonyl}azetidin-3-yl)piperazine]
